Assay: xn = mol fraction of the nth substance listed
Settings: 101 kPa, Liquid, Vibrating tube method

NCCN [ethane-1,2-diamine] + O
Settings	mass density [kg/m3]
274.15 K, x1 = 0.002	999.81
274.15 K, x1 = 0.0033	999.71
274.15 K, x1 = 0.0047	999.62
274.15 K, x1 = 0.0072	999.47
274.15 K, x1 = 0.009	999.38
274.15 K, x1 = 0.0123	999.18
274.15 K, x1 = 0.0222	998.88
274.15 K, x1 = 0.0436	999.22
274.15 K, x1 = 0.0609	1000.11
274.15 K, x1 = 0.0827	1002.02
275.15 K, x1 = 0.002	999.85
275.15 K, x1 = 0.0033	999.74
275.15 K, x1 = 0.0047	999.65
275.15 K, x1 = 0.0072	999.48
275.15 K, x1 = 0.009	999.37
275.15 K, x1 = 0.0123	999.18
275.15 K, x1 = 0.0222	998.82
275.15 K, x1 = 0.0436	999.08
275.15 K, x1 = 0.0609	999.93
275.15 K, x1 = 0.0827	1001.75
276.15 K, x1 = 0.002	999.87
276.15 K, x1 = 0.0033	999.75
276.15 K, x1 = 0.0047	999.66
276.15 K, x1 = 0.0072	999.48
276.15 K, x1 = 0.009	999.37
276.15 K, x1 = 0.0123	999.16
276.15 K, x1 = 0.0222	998.79
276.15 K, x1 = 0.0436	998.93
276.15 K, x1 = 0.0609	999.69
276.15 K, x1 = 0.0827	1001.43
277.15 K, x1 = 0.002	999.87
277.15 K, x1 = 0.0033	999.75
277.15 K, x1 = 0.0047	999.65
277.15 K, x1 = 0.0072	999.47
277.15 K, x1 = 0.009	999.35
277.15 K, x1 = 0.0123	999.12
277.15 K, x1 = 0.0222	998.71
277.15 K, x1 = 0.0436	998.76
277.15 K, x1 = 0.0609	999.54
277.15 K, x1 = 0.0827	1001.13
278.15 K, x1 = 0.002	999.85
278.15 K, x1 = 0.0033	999.73
278.15 K, x1 = 0.0047	999.62
278.15 K, x1 = 0.0072	999.43
278.15 K, x1 = 0.009	999.3
278.15 K, x1 = 0.0123	999.07
278.15 K, x1 = 0.0222	998.62
278.15 K, x1 = 0.0436	998.59
278.15 K, x1 = 0.0609	999.31
278.15 K, x1 = 0.0827	1000.79
278.15 K, x1 = 0.106	1002.72
278.15 K, x1 = 0.1481	1006.44
278.15 K, x1 = 0.2063	1009.32
278.15 K, x1 = 0.2513	1008.93
278.15 K, x1 = 0.3148	1002.73
278.15 K, x1 = 0.3258	1002.11
278.15 K, x1 = 0.3316	1001.85
278.15 K, x1 = 0.341	1001.4
278.15 K, x1 = 0.4038	992.34
278.15 K, x1 = 0.4489	985.23
278.15 K, x1 = 0.4928	977.8
278.15 K, x1 = 0.5468	968.88
278.15 K, x1 = 0.5907	961.76
278.15 K, x1 = 0.6361	954.59
278.15 K, x1 = 0.6843	947.87
278.15 K, x1 = 0.7386	940.37
278.15 K, x1 = 0.7954	933.17
278.15 K, x1 = 0.81	931.24
278.15 K, x1 = 0.8505	926.49
278.15 K, x1 = 0.898	921.18
278.15 K, x1 = 0.9282	917.97
278.15 K, x1 = 0.9584	914.9
278.15 K, x1 = 0.9678	913.98
279.15 K, x1 = 0.002	999.82
279.15 K, x1 = 0.0033	999.7
279.15 K, x1 = 0.0047	999.59
279.15 K, x1 = 0.0072	999.38
279.15 K, x1 = 0.009	999.26
279.15 K, x1 = 0.0123	999.01
279.15 K, x1 = 0.0222	998.54
279.15 K, x1 = 0.0436	998.41
279.15 K, x1 = 0.0609	999.05
279.15 K, x1 = 0.0827	1000.47
280.15 K, x1 = 0.002	999.78
280.15 K, x1 = 0.0033	999.65
280.15 K, x1 = 0.0047	999.54
280.15 K, x1 = 0.0072	999.33
280.15 K, x1 = 0.009	999.2
280.15 K, x1 = 0.0123	998.93
280.15 K, x1 = 0.0222	998.41
280.15 K, x1 = 0.0436	998.21
280.15 K, x1 = 0.0609	998.8
280.15 K, x1 = 0.0827	1000.14
281.15 K, x1 = 0.002	999.72
281.15 K, x1 = 0.0033	999.59
281.15 K, x1 = 0.0047	999.47
281.15 K, x1 = 0.0072	999.25
281.15 K, x1 = 0.009	999.12
281.15 K, x1 = 0.0123	998.84
281.15 K, x1 = 0.0222	998.29
281.15 K, x1 = 0.0436	998.03
281.15 K, x1 = 0.0609	998.53
281.15 K, x1 = 0.0827	999.78
282.15 K, x1 = 0.002	999.65
282.15 K, x1 = 0.0033	999.52
282.15 K, x1 = 0.0047	999.39
282.15 K, x1 = 0.0072	999.17
282.15 K, x1 = 0.009	999.04
282.15 K, x1 = 0.0123	998.74
282.15 K, x1 = 0.0222	998.17
282.15 K, x1 = 0.0436	997.81
282.15 K, x1 = 0.0609	998.25
282.15 K, x1 = 0.0827	999.43
283.15 K, x1 = 0.002	999.56
283.15 K, x1 = 0.0033	999.43
283.15 K, x1 = 0.0047	999.3
283.15 K, x1 = 0.0072	999.07
283.15 K, x1 = 0.009	998.92
283.15 K, x1 = 0.0123	998.62
283.15 K, x1 = 0.0222	998.01
283.15 K, x1 = 0.0436	997.6
283.15 K, x1 = 0.0609	997.98
283.15 K, x1 = 0.0827	999.09
288.15 K, x1 = 0.002	998.94
288.15 K, x1 = 0.0033	998.79
288.15 K, x1 = 0.0047	998.64
288.15 K, x1 = 0.0072	998.38
288.15 K, x1 = 0.009	998.21
288.15 K, x1 = 0.0123	997.87
288.15 K, x1 = 0.0222	997.12
288.15 K, x1 = 0.0436	996.36
288.15 K, x1 = 0.0609	996.47
288.15 K, x1 = 0.0827	997.2
288.15 K, x1 = 0.106	998.37
288.15 K, x1 = 0.1481	1000.83
288.15 K, x1 = 0.2063	1002.48
288.15 K, x1 = 0.2513	1001.08
288.15 K, x1 = 0.3148	995
288.15 K, x1 = 0.3316	993.72
288.15 K, x1 = 0.341	992.78
288.15 K, x1 = 0.4038	983.69
288.15 K, x1 = 0.4489	976.15
288.15 K, x1 = 0.4928	968.71
288.15 K, x1 = 0.5468	959.92
288.15 K, x1 = 0.5907	952.42

From the NIST ThermoML archive (doi:10.1016/j.tca.2016.06.022)
